One data set can be described thus: water solubility. The format is physicochemical. How it is done: Despite the high water solubility of sodium ditriazoate and sodium methoxy coumarin (>1 mg/ml), WIN 67638 and WIN 67591 are sparingly soluble in water with solubility less than 0.01 mg/mL.
By water soluble is meant greater than 1 mg/ml.

The nature of data set [1]: blood pool imaging, vascular x-ray contrast by CT after intravenous injection. The following applies: 3 ml/kg via ear vein, CT at 5, 15, 30, 60, 120 min and 24 hours. The format is in vivo, New Zealand White rabbits. How it is done: (§1) 2.85 g of WIN 67591 (19.2%) were added to 30 ml of a solution of 5.2% BASF NF Grade Tetronic 908 (wt/vol %) in sterilized distilled water and approximately 100 ml of 1.1 mm zirconium silicate beads in a 250 ml bottle. The bottle was capped and rolled at approximately 140 rpm for 7 days at which time the average particle size was determined to be 173 nm. The suspension was separated from the beads and sent for intravenous injection as a vascular x-ray contrast agent. New Zealand White rabbits were used for this study and were injected via the ear vein at a dose of 3 ml/kg. Three animals were studied for times 5, 15, 30, 60, 120 min. and 24 hours. CT scanning was carried out using a Toshiba Model TCT-900S/x at the times indicated.

A short description of data set [2]: average particle size of roller-milled nanoparticle suspension (light scattering / PCS). The format is physicochemical. How it is done: (§2) 0.75 g of WIN 67591, as prepared in Example 1, was added to approximately 30 ml of 1.1 mm zirconium oxide beads and 10 ml of a solution which was 2% Tetronic 908 (wt/vol %) and 1% SA9OHCO (wt/vol %). SA9OHCO is a small sugar surfactant. The suspension was roller milled in a 60 ml jar at approximately 100 rpm for 7 days. At the end of this time, the average particle size was determined to be 192 nm by light scattering using a Zetasizer III. The suspension was removed from the beads and sent for subcutaneous injection as a lymphographic agent. CT imaging was carried out using a GE Model 9800 Instrument.
as §1
(§3) […] as prepared in Example 1 at 5% W/V was formulated with 3% Tyloxapol by roller milling for ten days following the procedures similar to that of work example 3 and 4. The average particle size by PCS was 302 nm. The formulation was administered i.v. to colon 33 bearing mice at 0.2 ml/animal. […] As high as 700 ug (0.7% of the total dosage) WIN 67591 remained circulating in the blood 1 hour post injection. WIN 67591 was detected in the tumor tissue as early as 5 minute post injection. The drug concentration reached a maximum at 90 ug/g of tumor tissue at 6 hour post injection and maintained at a concentration of 60 ug/g in the tumor tissue for 48 hours.

The nature of data set [3]: tumor tissue concentration after iv injection in mice bearing colon 33 tumor. The format is in vivo. As to conditions: mouse, colon 33 tumor tissue, iv; for Cmax at 6 h: read-out: maximum drug concentration in tumor tissue; for Tmax: read-out: time of maximum drug concentration in tumor tissue. How it is done: (§4) A nanoparticulate formulation of 5% w/v […] in 3% polyoctylphenol (Tyloxopol) was prepared by ten days roller milling following the procedures similar to that of Example 9.
(§5) The formulation was administered to mice bearing colon 33 tumor by iv injection. Analysis of the tumor tissue indicated the presence of WIN 67591 in the tumor tissue as soon as 5 minutes after injection. The drug concentration reached a maximum of 90 μg/g of tumor tissue at 6 hours and maintained at a concentration of 60 μg/g of tumor tissue for 42 hours.
as §3

In a further data set the test system is colon 33 tumor tissue. Described as above. It counts as in vivo. As to the method: as §4, §5, §3
Data set [4] in a line: mortality in biodistribution study in colon 33 tumor bearing mice. The format is in vivo. The following applies: iv 0.2 ml/animal; during 48 hours treatment. As to the method: as §4
(§6) A biodistribution study of the treatment of Example 5 was conducted by iv injections into colon 33 tumor bearing mice at 0.2 ml/animal. […] No dead mice were reported during the 48 hours treatment.

Another data set concerns axillary nodes. The experiment in a line: lymphography, CT imaging of axillary nodes after subcutaneous injection. It counts as in vivo, New Zealand White Rabbits. The following applies: 4 hours post injection, single 0.5 ml subcutaneous dose, dorsal side of forepaw. How it is done: as §2
The nature of data set [5]: biodistribution study, circulation in blood of colon 33 tumor bearing mice. The format is in vivo. The following applies: Example 7, i.v. 0.2 ml/animal. How it is done: as §4, §6, §3

Like-named read-outs stand apart in the source and are kept apart here.

For `COc1ccc2c(COC(=O)c3c(I)c(NC(C)=O)c(I)c(NC(C)=O)c3I)cc(=O)oc2c1` [WIN 67638], in the data set “water solubility” (water), the solubility is below 10 µg/mL.
Regarding `CC(=O)Nc1c(I)c(NC(C)=O)c(I)c(C(=O)O)c1I` [sodium ditriazoate, sodium diatrizoate, reference compound], in the data set “water solubility” (in water, starting materials, read-out: water solubility), the solubility is above 1000 µg/mL.
In turn, sodium methoxy coumarin gave a water solubility in “water solubility” (water) above 1000 µg/mL.
On to `COc1cc2oc(=O)cc(COC(=O)c3c(I)c(NC(C)=O)c(I)c(NC(C)=O)c3I)c2cc1OC` [WIN 67591], for which the “prolonged vascular residence time” value in data set [1] is above 2 h. For the same compound, the average particle size was 192 nm in data set [2] (2% Tetronic 908 and 1% SA9OHCO, roller milled 7 days, light scattering, Zetasizer III); 173 nm in data set [2] (5.2% Tetronic 908 in sterilized distilled water, rolled 7 days). Also, the “average particle size by PCS” value in data set [2] (5% W/V with 3% Tyloxapol, roller milling ten days) was determined as 302 nm. For the same compound, the Cmax at 6 h in data set [3] (Example 7, at 6 hour post injection, i.v. 0.2 ml/animal) worked out at 90000 ng/g; in data set [3] (Example 5, at 6 hours), 90000 ng/g. The concentration at 48 h in data set [3] (Example 7, for 48 hours, i.v. 0.2 ml/animal, read-out: concentration maintained in tumor tissue) is 60000 ng/g. Further, the Tmax in data set [3] (Example 7, i.v. 0.2 ml/animal) stood at 6 h; in data set [3] (Example 5) it was 6 h. In addition, the concentration at 42 h in data set [3] (Example 5, for 42 hours, read-out: concentration maintained in tumor tissue) is 60000 ng/g. Moreover, the “time for which tumor concentration of 60 μg/g was maintained” value with colon 33 tumor tissue (Example 5, iv) stood at 42 h. The “tumor tissue concentration versus average therapeutic dosage of oncologics” value in the data set on colon 33 tumor tissue (Example 5, iv) was “exceeds the average therapeutic dosage of oncologics”. For the same compound, the “time at which drug is present in tumor tissue” value in the data set on colon 33 tumor tissue (Example 5, iv, 5% w/v in 3% Tyloxapol) is at most 5 min. The “time at which drug is detected in tumor tissue” value in the data set on colon 33 tumor tissue (Example 7, HPLC, i.v. 0.2 ml/animal) is at most 5 min. Moreover, the “time for which tumor concentration of 60 ug/g was maintained” value with colon 33 tumor tissue (Example 7, i.v. 0.2 ml/animal) amounted to 48 h. Also, in the data set “water solubility” (in water, conjugates, read-out: solubility in water), the solubility is below 10 µg/mL. The dead mice result in data set [4] was “No dead mice”. The “enhancement of the axillary nodes (CT)” value with axillary nodes was “clear enchancement of the axillary nodes”. The “amount remaining circulating in the blood” value in data set [5] (1 hour post injection) worked out at 700 µg. For the same compound, the “share of total dosage remaining circulating in the blood” value in data set [5] (1 hour post injection) was 0.7%. Besides, in data set [5], the blood circulation result is given as “prolonged blood circulation”.

These data come from US5665330A, “Dual purposed diagnostic/therapeutic agent having a tri-iodinated benzoyl group linked to a coumarin” (Nano Systems LLC, priority 1995, dated 1997).
